Results as given in US20260285863A1, “COMPOUNDS CAPABLE OF MODULATING GPR65” (Pathios Therapeutics Limited, priority 2023, published 2026).

Molecular target: T1, human recombinant GPR65 (Homo sapiens, UniProt Q8IYL9)
T1 construct: host or cells: 1321N1 human astrocytoma cells (1321N1-hrGPR65)
Assay: Human GPR65 cAMP HTRF antagonist assay
Format: cell-based
Details: 1321N1-hrGPR65 cells, assay pH 7.2, cAMP HTRF; read-out: hGPR65 IC50
Procedure, shortened: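 1321N1 cells stably expressing human GPR65 were preincubated 30 min at room temperature with compound in KRH pH 7.6 containing 1 mM IBMX and 200 μM EDTA. They were then acid-stimulated to pH 7.2 for 30 min, with pH 7.9 as control. cAMP was read by HTRF (665/620 ratio), and IC50 came from normalised 4-parameter logistic fits.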

T1 sequence (Q8IYL9 whole entry): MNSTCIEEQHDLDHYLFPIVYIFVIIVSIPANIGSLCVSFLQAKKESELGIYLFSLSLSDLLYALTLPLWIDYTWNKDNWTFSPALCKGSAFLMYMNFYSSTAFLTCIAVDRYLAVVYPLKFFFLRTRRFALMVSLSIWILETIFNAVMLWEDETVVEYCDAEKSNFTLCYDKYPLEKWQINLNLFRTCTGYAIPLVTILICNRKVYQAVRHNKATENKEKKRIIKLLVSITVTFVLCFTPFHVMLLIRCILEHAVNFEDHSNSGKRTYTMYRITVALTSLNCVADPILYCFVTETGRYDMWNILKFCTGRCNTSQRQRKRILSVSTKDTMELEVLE

## O=C(Nc1cc(Cl)c(-c2ccc(OC[C@@H]3CC3(F)F)nc2)cc1F)N1[C@H]2CC[C@@H]1c1n[nH]c(=O)cc1C2 [Compound 83, (6S,9R)-N-(5-Chloro-4-(6-(((S)-2,2-difluorocyclopropyl)methoxy)pyridin-3-yl)-2-fluorophenyl)-3-oxo-3,5,6,7,8,9-hexahydro-2H-6,9-epiminocyclohepta[c]pyridazine-10-carboxamide]
  IC50: < 500 nM

## N#Cc1cc(NC(=O)N2[C@H]3CC[C@@H]2c2ccnc(F)c2C3)c(F)cc1Cl [Compound 45, (5R,8S)-N-(4-chloro-5-cyano-2-fluorophenyl)-1-fluoro-6,7,8,9-tetrahydro-5H-5,8-epiminocyclohepta[c]pyridine-10-carboxamide]
  IC50: < 500 nM

## O=C(Nc1cc(Cl)c(Cl)cc1F)N1[C@H]2CC[C@@H]1c1cc[n+]([O-])cc1C2 [Compound 66, (5R,8S)-10-((4,5-dichloro-2-fluorophenyl)carbamoyl)-6,7,8,9-tetrahydro-5H-5,8-epiminocyclohepta[c]pyridine 2-oxide]
  IC50: < 500 nM

## CN(CC(F)(F)F)c1ccc(-c2cc(F)c(NC(=O)N3[C@H]4CC[C@@H]3c3n[nH]c(=O)cc3C4)cc2Cl)cn1 [Compound 3, (6S,9R)-N-(5-chloro-2-fluoro-4-(6-(methyl(2,2,2-trifluoroethyl)amino)pyridin-3-yl)phenyl)-3-oxo-3,5,6,7,8,9-hexahydro-2H-6,9-epiminocyclohepta[c]pyridazine-10-carboxamide]
  IC50: < 500 nM

## O=C(Nc1cc(Cl)c(C(F)(F)F)cc1F)N1[C@H]2CC[C@@H]1c1ccncc1C2 [Compound 50, (5R,8S)-N-(5-chloro-2-fluoro-4-(trifluoromethyl)phenyl)-6,7,8,9-tetrahydro-5H-5,8-epiminocyclohepta[c]pyridine-10-carboxamide]
  IC50: < 500 nM

## O=C(Nc1cc(Cl)c(Cl)cn1)N1C2CCC1[C@H](F)c1c2ccnc1F (mixture of isomers) [Compound 35, (±)(9S)-N-(4,5-dichloropyridin-2-yl)-1,9-difluoro-6,7,8,9-tetrahydro-5H-5,8-epiminocyclohepta[c]pyridine-10-carboxamide]
  IC50: < 500 nM

## Cn1ccc2cc(-c3cc(F)c(NC(=O)N4[C@H]5CC[C@@H]4c4c[nH]c(=O)cc4C5)cc3Cl)ccc21 [Compound 26, (6S,9R)-N-(5-chloro-2-fluoro-4-(1-methyl-1H-indol-5-yl)phenyl)-3-oxo-3,5,6,7,8,9-hexahydro-2H-6,9-epiminocyclohepta[c]pyridine-10-carboxamide]
  IC50: < 500 nM

## COCCOCCO[C@H]1C[C@H](Oc2ccc(-c3cc(F)c(NC(=O)N4[C@H]5CC[C@@H]4c4c[nH]c(=O)cc4C5)cc3Cl)cn2)C1 [Compound 22, (6S,9R)-N-(5-chloro-2-fluoro-4-(6-((1r,3R)-3-(2-(2-methoxyethoxy)ethoxy)cyclobutoxy)pyridin-3-yl)phenyl)-3-oxo-3,5,6,7,8,9-hexahydro-2H-6,9-epiminocyclohepta[c]pyridine-10-carboxamide]
  IC50: < 500 nM

## O=C(Nc1cc(Cl)c(COc2ccc(F)cn2)cc1F)N1[C@H]2CC[C@@H]1c1n[nH]c(=O)cc1C2 [Compound 51, (6S,9R)-N-(5-Chloro-2-fluoro-4-(((5-fluoropyridin-2-yl)oxy)methyl)phenyl)-3-oxo-3,5,6,7,8,9-hexahydro-2H-6,9-epiminocyclohepta[c]pyridazine-10-carboxamide]
  IC50: < 500 nM

## O=C(Nc1cc(Cl)c(-c2ccc(OCC3CCOC3)nc2)cc1F)N1[C@H]2CC[C@@H]1c1n[nH]c(=O)cc1C2 (stereo partly drawn) [Compound 41, (6S,9R)-N-(5-chloro-2-fluoro-4-(6-((tetrahydrofuran-3-yl)methoxy)pyridin-3-yl)phenyl)-3-oxo-3,5,6,7,8,9-hexahydro-2H-6,9-epiminocyclohepta[c]pyridazine-10-carboxamide]
  IC50: < 500 nM
